Test results from article PMC6917776, “Discovery of a chemical probe for PRDM9” (Nature Communications, 2019).
“And” between values parts separate entries of the source, which are not always exact repeats. Equal values may be shown once. Read-outs that look alike come from different tables or passages of the source.

Legend:
G9a = molecular target: T1, G9a (Homo sapiens, UniProt Q96KQ7); test: Methyltransferase selectivity assay (SPA); format: biochemical
T1 construct: purchased Structural Genomics Consortium (SGC Toronto) in-house methyltransferase panel
T1 sequence (Q96KQ7 1-1210): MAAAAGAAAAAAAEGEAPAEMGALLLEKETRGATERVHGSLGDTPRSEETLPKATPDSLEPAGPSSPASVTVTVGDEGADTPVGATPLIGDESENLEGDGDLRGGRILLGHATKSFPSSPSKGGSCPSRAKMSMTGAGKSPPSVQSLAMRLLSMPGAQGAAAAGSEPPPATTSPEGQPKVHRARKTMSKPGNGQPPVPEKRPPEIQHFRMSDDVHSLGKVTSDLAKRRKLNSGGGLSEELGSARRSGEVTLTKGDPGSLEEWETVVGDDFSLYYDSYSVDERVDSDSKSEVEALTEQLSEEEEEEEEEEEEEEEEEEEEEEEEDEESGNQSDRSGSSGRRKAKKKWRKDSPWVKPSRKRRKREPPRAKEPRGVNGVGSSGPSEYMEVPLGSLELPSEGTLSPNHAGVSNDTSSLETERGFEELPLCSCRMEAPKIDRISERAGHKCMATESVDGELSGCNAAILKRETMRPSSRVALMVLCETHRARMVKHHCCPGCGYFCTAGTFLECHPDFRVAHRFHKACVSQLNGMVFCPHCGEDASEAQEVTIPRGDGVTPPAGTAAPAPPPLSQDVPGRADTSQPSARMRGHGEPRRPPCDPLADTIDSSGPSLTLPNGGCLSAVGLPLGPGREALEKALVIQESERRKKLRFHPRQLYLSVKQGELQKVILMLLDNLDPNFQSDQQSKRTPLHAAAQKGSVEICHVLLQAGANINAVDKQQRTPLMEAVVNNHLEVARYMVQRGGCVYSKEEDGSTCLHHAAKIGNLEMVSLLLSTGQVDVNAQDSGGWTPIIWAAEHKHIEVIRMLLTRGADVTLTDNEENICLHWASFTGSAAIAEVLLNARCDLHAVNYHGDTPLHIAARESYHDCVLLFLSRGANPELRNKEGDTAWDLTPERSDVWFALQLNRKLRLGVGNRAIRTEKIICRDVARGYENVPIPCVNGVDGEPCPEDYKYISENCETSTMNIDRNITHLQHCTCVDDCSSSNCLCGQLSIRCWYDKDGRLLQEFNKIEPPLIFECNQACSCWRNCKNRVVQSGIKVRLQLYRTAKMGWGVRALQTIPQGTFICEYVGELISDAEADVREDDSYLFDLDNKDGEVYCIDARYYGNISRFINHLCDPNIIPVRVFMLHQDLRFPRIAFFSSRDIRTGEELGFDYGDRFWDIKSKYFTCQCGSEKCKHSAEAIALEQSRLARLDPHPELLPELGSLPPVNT
Description: Selectivity against methyltransferases were determined as described previously. Details of the assays are described in the supplementary methods.
Methyltransferase selectivity assay1
The effect of chemical probes and negative controls on the methyltransferase activities of protein, DNA and RNA methyltransferases was tested by radiometric assays using 3H-SAM. For proteins such as MLL1 trimeric, MLL3 pentameric, EZH1 (PRC2) pentameric, and EZH2 (PRC2) trimeric complexes, as well as G9a, GLP, SUV39H1, SUV39H2, SUV420H1, SUV420H2, SETD2, SETD8, SETDB1, SETD7, PRMT1, PRMT3, PRMT4, PRMT5/ MEP50 complex, PRMT6, PRMT7, PRMT8, PRMT9, PRDM9, SMYD2, SMYD3, DNMT1, and BCDIN3D the incorporation of a tritium-labeled methyl group into biotinylated substrate was monitored using scintillation proximity assay (SPA). Briefly, a 10 µL reaction containing 3H-SAM and substrate at concentrations close to the apparent Km values for each enzyme (balanced conditions) was prepared. The reactions were quenched with 10 µL of 7.5 M guanidine hydrochloride; 180 µL of 20 mM Tris buffer (pH 8.0) were added, and the mixture was transferred to a 96-well FlashPlate and incubated for 1 h. The counts per minute (CPM) was measured on a TopCount plate reader. The CPM in the absence of compound or enzyme was defined as 100% activity and background (0%), respectively, for each dataset. For DNMT1, the double-stranded DNA substrate was prepared by annealing two complementary strands (biotinylated forward strand: B-[…] and reverse strand:
) that were synthesized by Eurofins MWG Operon
For proteins which were tested with nucleosome as substrate such as DOT1L, NSD1, NSD2, NSD3, and ASH1L, or unbiotinylated Poly(2′-deoxyinosinic-2′-deoxycytidylic acid) (Cat# 81349-500UG, Sigma Aldrich) such as DNMT3A/3L, and DNMT3B/3L, a filter-based assay was used. In this assay, a trichloroacetic acid (TCA) protein precipitation protocol was employed. A 10 µL reaction mixture was incubated at 23°C for 1 h, followed by addition of 50 µL of 10% TCA. The mixture was transferred to filter plates (Millipore, Billerica, MA, USA) that were centrifuged at 2000 rpm (Allegra X-15R; Beckman Coulter, Brea, CA, USA) for 2 min. Samples were washed twice with 10% TCA and once with ethanol (180 µL), and centrifuged. After drying, 100 µL MicroScint-O (Perkin Elmer) was added to each well and the plates were centrifuged to remove the liquid. A 70 µL volume of MicroScint-O was added and the CPM was measured with a TopCount plate reader.

HEK293T cells = test: Cell growth, IncuCyte ZOOM cell number; format: cell-based; settings: for HEK293T cell growth (in words): 24 h of treatment; for Cell# - toxocity data, % Control: HEK293T-1day, Figure 6c, technical replicates

Structure (SMILES) | activity at 1 µM (G9a; 1µM compound, Exp1, Exp2) [%] | Activity % (G9a; 1µM compound, Exp1, Exp2, 1 µM) [%] | activity at 10 µM (G9a; 10µM compound, Exp1, Exp2) [%] | Activity % (G9a; 10µM compound, Exp1, Exp2, 10 µM) [%] | HEK293T cell growth (in words) (HEK293T cells; 3 µM) | Cell# - toxocity data, % Control (HEK293T cells; 1 µM) | Cell# - toxocity data, % Control (HEK293T cells; 3 µM) | Cell# - toxocity data, % Control (HEK293T cells; 5 µM) | Cell# - toxocity data, % Control (HEK293T cells; 10 µM) | activity at 1 µM (G9a; 1µM compound, Exp1, Exp2, read-out: Activity %) [%] | activity at 10 µM (G9a; 10µM compound, Exp1, Exp2, read-out: Activity %) [%]
COc1cc(OC)cc(-c2noc(N3CCN(C)C4(CCN(c5ccccc5)CC4)C3)n2)c1 [MRK-740 -NC] | 101 | 100 | 95 | 93 |  |  |  |  |  |  | 
COc1cc(OC)cc(-c2noc(N3CCN(C)C4(CCN(c5ccccc5)CC4)C3)n2)c1 [MRK-740-NC] |  |  |  |  | neither compound affected HEK293T cell growth | 113.12 % Control and 118.767 % Control and 86.3705 % Control | 125.539 % Control and 114.582 % Control and 84.3363 % Control | 86.195 % Control and 121.075 % Control and 87.3323 % Control | 76.5766 % Control and 74.1915 % Control and 52.2642 % Control |  | 
COc1cc(OC)cc(-c2noc(N3CCN(C)C4(CCN(c5ccnc(C)c5)CC4)C3)n2)c1 [MRK-740] |  | 89 |  |  | neither compound affected HEK293T cell growth | 89.1325 % Control and 119.658 % Control and 130.764 % Control | 81.2039 % Control and 117.832 % Control and 120.808 % Control | 86.208 % Control and 117.65 % Control and 129.14 % Control | 89.6654 % Control and 116.798 % Control and 107.394 % Control | 93 | 94
